Laboratory results reported in patent US20110045103A1, “METHODS FOR TREATING AIDS” (priority 2009, published 2011).

Assays:
[1] = test system: human immunodeficiency virus (HIV) Type I, strain HTLV-IIIB; assay: Virucidal efficacy assay: virus suspension exposed to test composition, then titered by infectivity (CPE) in MT-2 cells; type: cell-based, HIV Type 1
Protocol: Composition Tested: A 20 mL vial of ammonium chloride (100 mEq/5 mL) was dissolved into a 1 liter bag of 0.9% sodium chloride injection USP (9 g/L sodium chloride; osmolarity of 308 mOsmol/L; 154 mEq/L sodium; 154 mEq/L chloride). The contents of the bag were transferred to a sterile glass bottle. The solution was equilibrated to room temperature prior to use.
Virus: human immunodeficiency virus (HIV) Type I, strain HTLV-IIIB, was obtained from Advanced Biotechnologies, Inc., Columbia, Md. Stock virus was prepared by collecting the supernatant culture fluid from infected culture cells. The cells were disrupted and cell debris removed by centrifugation at approximately 2200 RPM for ten minutes at room temperature. The supernatant was removed, aliquoted, and the high titer stock virus was stored at ≦−70° C. until the day of use. On the day of use, an aliquot of stock virus was removed, thawed, and maintained at a refrigerated temperature until used in the assay. The stock virus culture was adjusted to contain 5% fetal bovine serum as the organic soil lead.
(§1) Test Cultures: MT-2 cells (human T-cell leukemia cells) were obtained through the AIDS Research and Reference Reagent Program, Division of AIDS, NIAID, NIH from Dr. Douglas Richman. Cultures were maintained and used in suspension in tissue culture labware at 36-38° C. in a humidified atmosphere of 5-7% CO2.
Test Medium: The test medium used for the assay was RPMI 1640 supplemented with 10% (v/v) heat-inactivated fetal bovine serum (FBS). The medium was also supplemented with 2.0 mM L-glutamine and 50 μg/mL gentamicin.
Treatment of Virus Suspension: A 1.80 mL aliquot of the test substance was dispensed into a sterile tube and mixed with a 0.2 mL aliquot of the stock virus suspension. The mixture was vortex mixed for 10 seconds and held for the remainder of the specified exposure time at 37.0° C. The exposure time was ten minutes. Following the exposure time, a 0.1 mL aliquot was removed from the tube and the mixture was immediately titered by 10-fold serial dilution (0.1 mL+0.9 mL test medium) and assayed for the presence of virus in MT-2 cells. To decrease the test substance cytotoxicity, the first dilution was made in FBS with the remaining dilutions in test medium.
Treatment of Virus Control: A 0.2 mL aliquot of stock virus suspension was exposed to a 1.80 mL aliquot of test medium, in lieu of test substance, and treated as previously described. Following the exposure time, a 0.1 mL aliquot was removed from the tube and the mixture was immediately titered by 10-fold serial dilution (0.1 mL+0.9 mL test medium) and assayed for the presence of virus in MT-2 cells. All controls employed the FBS neutralizer as described in the Treatment of Virus Suspension section above. The virus control titer was used as a baseline to compare the percent and log reductions of the test parameter following exposure to the test substance.
Cells in the multiwall culture dishes were inoculated in quadruplicate with 0.2 mL of the dilutions prepared from test and control groups. Uninfected indicator cell cultures (cell controls) were inoculated with test medium alone. The cultures were incubated at 36-38° C. in a humidified atmosphere of 5-7% CO2 in sterile disposable cell culture labware. The cultures were scored periodically for eight days for the absence or presence of CPE, cytotoxicity, and for viability.
(§2) Data analysis: Viral and cytotoxicity titers are expressed as −log 10 of the 50 percent titration endpoint for infectivity (TCID50) or cytotoxicity (TCD50), respectively, as calculated by the method of Spearman Karber: […]
Calculation of Percent (%) Reduction:
Calculation of Log Reduction:
TCID50 of the virus control—TCID50 of the test substance=Log reduction Study Acceptance Criteria: A valid test required the following: (1) that stock virus be recovered from the virus control; (2) that the cell controls be negative for virus; and (3) that negative cultures are viable.

[2] = test system: MT-2 cells (human T-cell leukemia cells); assay: Cytotoxicity control of the virucidal assay; type: cell-based; conditions: ten minute exposure
Protocol: as §1
Cytotoxicity Control: A 1.80 mL aliquot of the test substance was mixed with a 0.2 mL aliquot of test medium containing the BSA organic soil load, in lieu of virus, and treated as previously described. The cytotoxicity control was held for the ten minute exposure time. […] The cytotoxicity of the MT-2 cell cultures was scored at the same time as virus-test substance and virus control cultures. Cytotoxicity was graded on the basis of cell viability as determined microscopically. […]
Cells in the multiwall culture dishes were inoculated in quadruplicate with 0.2 mL of the dilutions prepared from test and control groups. […] The cultures were scored periodically for eight days for the absence or presence of CPE, cytotoxicity, and for viability.
as §2

[3] = ten minute exposure at 37° C., 5% fetal bovine serum, compared to virus control

Structure (SMILES): Cl.N [Ammonium Chloride, ammonium chloride]
- Presence of test virus, four cultures ([1]; dilution 10^-2, after ten minute exposure): + + + +
- Presence of test virus, four cultures ([1]; dilution 10^-3, after ten minute exposure): + + + +
- Presence of test virus, four cultures ([1]; dilution 10^-4, after ten minute exposure): + + + +
- Log10 Reduction in viral titer [1, 3]: 1.0 Log10
- Percent Reduction in viral titer [1, 3]: 90.0%
- Percent Reduction in viral titer ([1]; ten minute exposure at 37° C., 5% fetal bovine serum, compared to virus control, listed as ammonium chloride): 90%
- test virus infectivity detected in the virus-test substance mixture ([1]; ten minute exposure at 37° C., virus control titer 6.0 log 10): 5.0 log 10
- Test substance cytotoxicity (not observed at any dilution tested) [2]: ≤ 1.5 log 10
